From ChEMBL document CHEMBL1201862, “PubChem BioAssay data set” (2004)
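Interpolation was linear, between the two tested concentrations surrounding the appropriate level; five concentrations were tested over 48 hours in 96-well plates. GI50 is the concentration that inhibits growth by half.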 Activity calls are given as the source filed them. Rule as the data show it: active = GI50 up to about 1.1 µM and inactive = higher.

Tests used:
Assay in all cases: NCI tumour cell line growth inhibition, 48 h
[1] = test system: SK-MEL-2
[2] = test system: KM12
[3] = test system: NCI-H226
[4] = test system: CAKI-1
[5] = test system: U-251
[6] = test system: MDA-MB-435
[7] = test system: COLO 205
[8] = test system: SF-295
[9] = test system: SK-MEL-28
[10] = test system: Malme-3M
[11] = test system: HCT-116
[12] = test system: SNB-19
[13] = test system: HOP-62
[14] = test system: SF-539
[15] = test system: MCF7
[16] = test system: M14
[17] = test system: NCI/ADR-RES
[18] = test system: IGROV-1
[19] = test system: DU-145
[20] = test system: ACHN
[21] = test system: HOP-92
[22] = test system: OVCAR-8
[23] = test system: T47D
[24] = test system: 786-0
[25] = test system: MOLT-4
[26] = test system: TK-10
[27] = test system: HT-29
[28] = test system: PC-3
[29] = test system: SK-OV-3
[30] = test system: LOX IMVI
[31] = test system: SF-268
[32] = test system: HCC 2998
[33] = test system: UACC-257
[34] = test system: K562
[35] = test system: A498
[36] = test system: MDA-MB-231
[37] = test system: MDA-N
[38] = test system: CCRF-CEM
[39] = test system: RPMI-8226
[40] = test system: OVCAR-3
[41] = test system: OVCAR-4
[42] = test system: RXF 393
[43] = test system: SR
[44] = test system: EKVX
[45] = test system: UO-31
[46] = test system: BT-549
[47] = test system: SK-MEL-5
[48] = test system: NCI-H23
[49] = test system: UACC-62
[50] = test system: HCT-15
[51] = test system: SW-620
[52] = test system: SN12C
[53] = test system: NCI-H460
[54] = test system: OVCAR-5
[55] = test system: SNB-75
[56] = test system: A549
[57] = test system: NCI-H522
[58] = test system: HL-60
[59] = test system: Hs-578T

Measured: GI50

CC(=O)CC1(CBr)Nc2ccc([N+](=O)[O-])cc2NC1=O (stereo not drawn)
inactive: [1] > 100 µM | [2] 56.2 µM | [3] > 100 µM | [4] > 100 µM | [5] > 100 µM | [6] > 100 µM | [7] > 100 µM | [8] > 100 µM | [9] 97.7 µM | [10] 92.3 µM | [11] 31.8 µM | [12] > 100 µM | [13] 83.2 µM | [14] 44.1 µM | [15] 40.9 µM | [16] > 100 µM | [17] > 100 µM | [18] > 100 µM | [19] 42.1 µM | [20] > 100 µM | [21] 59.6 µM | [22] > 100 µM | [23] 42.9 µM | [24] 31.2 µM | [25] 42.9 µM | [26] 82.2 µM | [27] 90.4 µM | [28] 60.4 µM | [29] > 100 µM | [30] 52.1 µM | [31] > 100 µM | [32] > 100 µM | [33] > 100 µM | [34] 83.8 µM | [35] > 100 µM | [36] > 100 µM | [37] > 100 µM | [38] 45.2 µM | [39] 44.3 µM | [40] 28.1 µM | [41] 81.8 µM | [42] 32.7 µM | [43] 34 µM | [44] > 100 µM | [45] 61.9 µM | [46] 58.1 µM | [47] > 100 µM | [48] > 100 µM | [49] > 100 µM | [51] 28.7 µM | [52] 93.1 µM | [53] > 100 µM | [54] > 100 µM | [55] > 100 µM | [56] > 100 µM | [57] 18.5 µM
82.6 µM: [50]

CO[C@H]1O[C@@H]2CO[C@@H](c3ccccc3)O[C@H]2[C@@H]2C/C=C\CCC[C@@]12O
24.4 µM: [50]
inactive: [1] 16 µM | [2] 22.5 µM | [3] 20.7 µM | [4] 33.4 µM | [5] 20.8 µM | [6] 24 µM | [7] 17.2 µM | [8] 19.7 µM | [9] 30.1 µM | [11] 16.1 µM | [12] 38.7 µM | [13] 18 µM | [15] 19.2 µM | [16] 22.4 µM | [17] 26.9 µM | [18] 30 µM | [19] 20.7 µM | [20] 17.3 µM | [21] 20 µM | [22] 34.1 µM | [23] 33.2 µM | [24] 16.7 µM | [25] 17 µM | [26] 34.8 µM | [27] 17.9 µM | [28] 25.3 µM | [29] 29 µM | [30] 17.8 µM | [31] 21.6 µM | [32] 12.7 µM | [33] 18.5 µM | [34] 20 µM | [35] 14.8 µM | [36] 29 µM | [37] 25.1 µM | [38] 31 µM | [39] 17.2 µM | [40] 16.3 µM | [41] 32.8 µM | [42] 17.2 µM | [43] 20.3 µM | [44] 19.4 µM | [45] 30.8 µM | [46] 20.2 µM | [47] 17.8 µM | [48] 24 µM | [49] 15.7 µM | [58] 19.8 µM | [51] 26.9 µM | [52] 17.7 µM | [53] 16.8 µM | [54] 21.7 µM | [55] 59.6 µM | [56] 26.9 µM | [57] 20.1 µM

COc1cc(/C=C2\CCc3ccccc3C2=O)ccc1O
22.4 µM: [50]
inactive: [2] 16.3 µM | [4] 24.3 µM | [5] 16.9 µM | [9] 21.1 µM | [12] 14.6 µM | [14] 16.1 µM | [15] 11.1 µM | [16] 17.9 µM | [17] 29.5 µM | [18] 34.3 µM | [59] 29 µM | [20] 26.4 µM | [21] 22.6 µM | [22] 19.1 µM | [24] 13.7 µM | [25] 12 µM | [26] 18.7 µM | [27] 18.2 µM | [28] > 10 µM | [29] 26 µM | [30] 15 µM | [31] 27.1 µM | [32] 5.64 µM | [34] 16.8 µM | [35] > 10 µM | [38] 1.41 µM | [39] 17.9 µM | [40] 19.6 µM | [41] 18.5 µM | [42] 12 µM | [43] 11.2 µM | [44] 25.4 µM | [45] 14.3 µM | [46] 17.9 µM | [47] 17.7 µM | [48] 23 µM | [49] > 10 µM | [58] 4.24 µM | [51] 16.1 µM | [52] 22.4 µM | [53] 17.3 µM | [54] 14.2 µM | [55] 28.5 µM | [56] 22.1 µM
